Reference: patent US12122761B2, “2-azaspiro[3.4]octane derivatives as M4 agonists” (NOVARTIS AG, priority 2019, dated 2024)

What was measured:
Assay type in all cases: cell-based
[1] = biological target: T1, human cloned CHRM5 receptor (M5_CHO) (Homo sapiens, UniProt P08912); assay: CHRM5 Ca++ Flux Assay (agonist mode, FDSS 7000EX); settings: for M5 FDSS PA / Emax: Percent Activity measured to EC100 of Carbachol; for EC50: agonist mode, geometric mean if tested more than once, read-out: M5 FDSS EC50; for Emax: read-out: M5 FDSS PA
T1 construct: expressed in transfected cells; host or cells: CHO (M5_CHO)
T1 sequence (P08912 1-532): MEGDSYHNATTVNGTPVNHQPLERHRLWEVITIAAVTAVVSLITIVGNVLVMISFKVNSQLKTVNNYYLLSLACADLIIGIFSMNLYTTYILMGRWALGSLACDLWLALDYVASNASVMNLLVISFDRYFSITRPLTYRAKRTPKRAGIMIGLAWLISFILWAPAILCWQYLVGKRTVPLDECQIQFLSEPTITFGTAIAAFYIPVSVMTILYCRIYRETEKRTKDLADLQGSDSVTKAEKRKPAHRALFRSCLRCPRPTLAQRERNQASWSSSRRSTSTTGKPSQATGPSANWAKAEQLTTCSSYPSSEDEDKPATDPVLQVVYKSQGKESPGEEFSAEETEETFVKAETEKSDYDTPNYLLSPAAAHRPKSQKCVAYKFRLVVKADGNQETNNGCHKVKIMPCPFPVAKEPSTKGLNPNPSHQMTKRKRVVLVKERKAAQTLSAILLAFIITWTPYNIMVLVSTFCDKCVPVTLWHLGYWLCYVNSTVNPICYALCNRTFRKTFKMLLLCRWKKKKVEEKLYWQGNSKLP
Procedure, shortened: (§1)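 Agonist-mode calcium flux: 11-point dose responses, triplicate wells, fluorescence followed for 3 minutes. Cells are M3_CHO or M5_CHO lines (human receptors) with Ca++ indicator in probenecid-containing HEPES/HBSS buffer. Percent activity is referenced to carbachol EC100, and curves come from four-parameter nonlinear regression.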

[2] = biological target: T2, human cloned CHRM2 receptor (M2_CHO cells) (Homo sapiens, UniProt P08172); assay: CHRM2 Ca++ Flux Assay (agonist mode, FDSS 7000EX); settings: for M2 FDSS PA / Emax: Percent Activity measured to EC100 of Carbachol; for EC50: agonist mode, geometric mean if tested more than once, read-out: M2 FDSS EC50; for Emax: read-out: M2 FDSS PA
T2 construct: expressed in transfected cells; host or cells: CHO-K1
T2 sequence (P08172 1-466): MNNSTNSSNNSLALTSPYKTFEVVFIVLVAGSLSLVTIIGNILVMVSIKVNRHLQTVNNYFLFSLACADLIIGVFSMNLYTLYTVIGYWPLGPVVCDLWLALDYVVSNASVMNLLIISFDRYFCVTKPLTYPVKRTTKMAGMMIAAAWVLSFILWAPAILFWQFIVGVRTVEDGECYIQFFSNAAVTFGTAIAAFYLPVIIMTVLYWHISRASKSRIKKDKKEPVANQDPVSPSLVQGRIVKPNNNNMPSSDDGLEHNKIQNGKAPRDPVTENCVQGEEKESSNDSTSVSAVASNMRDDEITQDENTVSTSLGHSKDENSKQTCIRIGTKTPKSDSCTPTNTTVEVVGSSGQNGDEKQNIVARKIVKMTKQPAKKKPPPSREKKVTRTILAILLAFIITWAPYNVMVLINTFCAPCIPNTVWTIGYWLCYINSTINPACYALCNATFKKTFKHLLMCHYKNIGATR
Procedure, shortened: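 Response expressed as percent activity versus the Carbachol EC100, with curves fitted by four-parameter non-linear regression of triplicates. Stable M2_CHO cells were Ca++ dye-loaded and preincubated 60 min at room temperature in assay buffer containing 20 μM ATP; signal imaged for 3 minutes after compound.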

[3] = biological target: T3, human cloned CHRM3 receptor (M3_CHO cells) (Homo sapiens, UniProt P20309); assay: CHRM3 Ca++ Flux Assay (agonist mode, FDSS 7000EX); settings: for M3 FDSS PA / Emax: Percent Activity measured to EC100 of Carbachol; for EC50: agonist mode, geometric mean if tested more than once, read-out: M3 FDSS EC50; for Emax: read-out: M3 FDSS PA
T3 construct: expressed in transfected cells; host or cells: CHO-K1
T3 sequence (P20309 whole entry): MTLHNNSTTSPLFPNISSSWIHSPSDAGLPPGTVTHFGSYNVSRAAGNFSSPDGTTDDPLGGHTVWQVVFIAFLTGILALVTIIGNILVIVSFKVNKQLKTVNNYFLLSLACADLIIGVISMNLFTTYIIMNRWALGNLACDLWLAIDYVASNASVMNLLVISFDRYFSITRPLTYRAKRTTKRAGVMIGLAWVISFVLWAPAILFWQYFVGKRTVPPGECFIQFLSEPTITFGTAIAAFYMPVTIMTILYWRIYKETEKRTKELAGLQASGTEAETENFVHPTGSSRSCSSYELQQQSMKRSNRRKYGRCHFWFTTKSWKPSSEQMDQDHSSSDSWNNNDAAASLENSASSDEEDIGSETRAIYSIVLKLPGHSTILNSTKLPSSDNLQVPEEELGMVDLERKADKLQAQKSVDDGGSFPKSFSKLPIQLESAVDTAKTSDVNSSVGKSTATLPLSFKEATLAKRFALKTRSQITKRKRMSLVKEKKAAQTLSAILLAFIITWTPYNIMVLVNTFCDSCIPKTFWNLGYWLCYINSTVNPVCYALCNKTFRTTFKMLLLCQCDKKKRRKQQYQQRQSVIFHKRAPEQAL
Procedure, shortened: as §1

Row | Compound | M5 FDSS PA [1] | EC50 [1] | M2 FDSS PA [2] | EC50 [2] | M3 FDSS PA [3] | EC50 [3] | Emax [1] | Emax [2] | Emax [3]
1 | O=C(N1CC2(CC[C@@H](N3CCC(c4ccccc4OCC4CC4)CC3)C2)C1)C1(F)CC1 (single isomer, unassigned) [Example 7T, (R)-(6-(4-(2-(cyclopropylmethoxy)phenyl)piperidin-1-yl)-2-azaspiro[3.4]octan-2-yl)(1-fluorocyclopropyl)methanone or (R)-(6-(4-(2-(cyclopropylmethoxy)phenyl)piperidin-1-yl)-2-azaspiro[3.4]octan-2-yl)(1-fluorocyclopropyl)methanone] | 0% | > 25 µM | 19% | 18.6 µM | 0% | > 25 µM | – | – | –
2 | O=C(N1CC2(CC[C@@H](N3CCC(c4ccccc4OCc4ncccn4)CC3)C2)C1)C1(F)CC1 (single isomer, unassigned) [Example 7M, (R)-(1-fluorocyclopropyl)(6-(4-(2-(pyrimidin-2-ylmethoxy)phenyl)piperidin-1-yl)-2-azaspiro[3.4]octan-2-yl)methanone or (S)-(1-fluorocyclopropyl)(6-(4-(2-(pyrimidin-2-ylmethoxy)phenyl)piperidin-1-yl)-2-azaspiro[3.4]octan-2-yl)methanone] | 0% | > 25 µM | 0% | – | 0% | > 25 µM | – | – | –
3 | OC1CCC(c2ccccc2C2CCN([C@@H]3CCC4(C3)CN(c3nnco3)C4)CC2)CC1 (single isomer, unassigned) [Example 2O, (1s,4r)-4-(2-(1-((R)-2-(1,3,4-oxadiazol-2-yl)-2-azaspiro[3.4]octan-6-yl)piperidin-4-yl)phenyl)cyclohexan-1-ol or (1r,4r)-4-(2-(1-((R)-2-(1,3,4-oxadiazol-2-yl)-2-azaspiro[3.4]octan-6-yl)piperidin-4-yl)phenyl)cyclohexan-1-ol] | 0% | > 25 µM | 28% | 0.09 µM | 0% | > 25 µM | – | – | –
4 | COc1ccccc1C1CCN([C@@H]2CCC3(C2)CN(c2ncon2)C3)CC1 [Example 4A, (R)-3-(6-(4-(2-methoxyphenyl)piperidin-1-yl)-2-azaspiro[3.4]octan-2-yl)-1,2,4-oxadiazole] | – | 0.7 µM | – | 0.019 µM | – | > 25 µM | 6% | 21% | 0%
5 | Cc1ccc(N2CC3(CC[C@@H](N4CCC(c5ccccc5O[C@@H]5CCOC5)CC4)C3)C2)cn1 [Example 5L, (R)-2-(6-methylpyridin-3-yl)-6-(4-(2-(((R)-tetrahydrofuran-3-yl)oxy)phenyl)piperidin-1-yl)-2-azaspiro[3.4]octane] | – | 14.4 µM | – | 7.88 µM | – | 11.7 µM | 17% | 36% | 0%
6 | O[C@H]1CC[C@@H](c2ccccc2C2CCN([C@@H]3CCC4(C3)CN(c3nnco3)C4)CC2)CC1 (single isomer, unassigned) [Example 2N, (1S,4s)-4-(2-(1-((R)-2-(1,3,4-oxadiazol-2-yl)-2-azaspiro[3.4]octan-6-yl)piperidin-4-yl)phenyl)cyclohexan-1-ol or (1R,4r)-4-(2-(1-((R)-2-(1,3,4-oxadiazol-2-yl)-2-azaspiro[3.4]octan-6-yl)piperidin-4-yl)phenyl)cyclohexan-1-ol] | 0% | > 25 µM | 0% | – | 0% | > 25 µM | – | – | –
7 | O=C(N1CC2(CC[C@@H](N3CCC(c4ccccc4OC(F)(F)F)CC3)C2)C1)C1(F)CC1 (single isomer, unassigned) [Example 9B, (R)-(1-fluorocyclopropyl)(6-(4-(2-(trifluoromethoxy)phenyl)piperidin-1-yl)-2-azaspiro[3.4]octan-2-yl)methanone or (S)-(1-fluorocyclopropyl)(6-(4-(2-(trifluoromethoxy)phenyl)piperidin-1-yl)-2-azaspiro[3.4]octan-2-yl)methanone] | 0% | > 25 µM | 0% | – | 0% | > 25 µM | – | – | –
8 | Cc1coc(N2CC3(CC[C@@H](N4CCC(c5ccc(F)cc5OCC(C)(C)O)CC4)C3)C2)n1 [Example 3N, (R)-1-(5-fluoro-2-(1-(2-(4-methyloxazol-2-yl)-2-azaspiro[3.4]octan-6-yl)piperidin-4-yl)phenoxy)-2-methylpropan-2-ol] | – | > 25 µM | – | – | – | > 25 µM | 0% | 0% | 0%

Results, then the compound that gave them:

Row | M5 FDSS PA [1] | EC50 [1] | M2 FDSS PA [2] | EC50 [2] | M3 FDSS PA [3] | EC50 [3] | Emax [1] | Emax [2] | Emax [3] | Compound
9 | 0% | > 25 µM | 0% | – | 0% | > 25 µM | – | – | – | FC(F)(F)Oc1ccccc1C1CCN([C@@H]2CCC3(C2)CN(c2ncco2)C3)CC1 (single isomer, unassigned) [Example 10K, (R)-2-(6-(4-(2-(trifluoromethoxy)phenyl)piperidin-1-yl)-2-azaspiro[3.4]octan-2-yl)oxazole or (S)-2-(6-(4-(2-(trifluoromethoxy)phenyl)piperidin-1-yl)-2-azaspiro[3.4]octan-2-yl)oxazole]
10 | 0% | 14.1 µM | 42% | – | 0% | > 25 µM | – | – | – | COc1ccccc1C1CCN([C@H]2CCC3(C2)CN(c2ncco2)C3)CC1 (single isomer, unassigned) [Example 10J, (S)-2-(6-(4-(2-methoxyphenyl)piperidin-1-yl)-2-azaspiro[3.4]octan-2-yl)oxazole or (R)-2-(6-(4-(2-methoxyphenyl)piperidin-1-yl)-2-azaspiro[3.4]octan-2-yl)oxazole]
11 | 0% | > 25 µM | 0% | – | 0% | > 25 µM | – | – | – | O=C(N1CC2(CC[C@@H](N3CCC(c4ccccc4OC4CCOCC4)CC3)C2)C1)C1(F)CC1 (single isomer, unassigned) [Example 9E, (R)-(1-fluorocyclopropyl)(6-(4-(2-((tetrahydro-2H-pyran-4-yl)oxy)phenyl)piperidin-1-yl)-2-azaspiro[3.4]octan-2-yl)methanone or (S)-(1-fluorocyclopropyl)(6-(4-(2-((tetrahydro-2H-pyran-4-yl)oxy)phenyl)piperidin-1-yl)-2-azaspiro[3.4]octan-2-yl)methanone]
12 | 0% | > 25 µM | 11% | 3.99 µM | 0% | > 25 µM | – | – | – | Fc1ccc(OC2CC3(COC3)C2)c(C2CCN([C@@H]3CCC4(C3)CN(c3cncnc3)C4)CC2)c1 (single isomer, unassigned) [Example 10E, (R)-6-(4-(2-((2-oxaspiro[3.3]heptan-6-yl)oxy)-5-fluorophenyl)piperidin-1-yl)-2-(pyrimidin-5-yl)-2-azaspiro[3.4]octane or (S)-6-(4-(2-((2-oxaspiro[3.3]heptan-6-yl)oxy)-5-fluorophenyl)piperidin-1-yl)-2-(pyrimidin-5-yl)-2-azaspiro[3.4]octane]
13 | 0% | > 25 µM | 0% | – | 0% | > 25 µM | – | – | – | Fc1ccc(OC2CCOCC2)c(C2CCN([C@@H]3CCC4(C3)CN(c3cncnc3)C4)CC2)c1 (single isomer, unassigned) [Example 10H, (R)-6-(4-(5-fluoro-2-((tetrahydro-2H-pyran-4-yl)oxy)phenyl)piperidin-1-yl)-2-(pyrimidin-5-yl)-2-azaspiro[3.4]octane or (S)-6-(4-(5-fluoro-2-((tetrahydro-2H-pyran-4-yl)oxy)phenyl)piperidin-1-yl)-2-(pyrimidin-5-yl)-2-azaspiro[3.4]octane]
